Among the data in PubChem BioAssay (NCI) are TGI and GI50 values, retold here.

Where “and” joins values, the source holds several entries; their conditions need not be identical. Equal values may be shown once.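 The compound was tested at five concentrations on cells cultured in 96-well plates, with a 48-hour exposure period. The concentration for 50% growth inhibition is given as GI50. TGI marks complete inhibition of growth.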 A value given as a limit tells only on which side of the number the result lay.

Test systems include ACHN renal; CAKI-1 renal; COLO 205 colon; HCC-2998 colon; KM12 colon; MOLT-4 leukemia; NCI/ADR-RES ovarian; SF-539 CNS; SNB-75 CNS; UO-31 renal.
What all share (experiment): inhibition of tumour cell growth, NCI panel, 48 h

On to `O=CN1CCC23CC(O)CCC2C1Cc1cc(Oc2nnnn2-c2ccccc2)cc(O)c13` (stereo not drawn), for which the TGI in the test on ACHN renal, with CAKI-1 renal, in the test on COLO 205 colon, in the test with HCC-2998 colon, with KM12 colon and in the test with MOLT-4 leukemia was over 100 µM in each case. The TGI with NCI/ADR-RES ovarian, in the test with SF-539 CNS, with SNB-75 CNS and in the test on UO-31 renal was over 100 µM each time.
As to `COc1cc(C2C(=O)C(Cl)N2Nc2nc(C)cc(=O)[nH]2)cc(OC)c1OC` (stereo not drawn), the TGI with ACHN renal worked out at 68.5 µM; with HCC-2998 colon it was 33 µM; with KM12 colon it was 76.9 µM; in the test with MOLT-4 leukemia, 39.9 µM; with SF-539 CNS it was 35.1 µM; in the test on SNB-75 CNS, 43.3 µM. Also, the TGI in the test with UO-31 renal is 79.1 µM.
Consider `CCOC(=O)C12CC(C)=C(C)CC1CCCc1ccccc12` (stereo not drawn), for which the TGI is 36 µM with ACHN renal; over 100 µM in the test on CAKI-1 renal; 33.9 µM in the test on COLO 205 colon; 28.1 µM in the test with HCC-2998 colon; over 100 µM with KM12 colon; 52.3 µM in the test on MOLT-4 leukemia. For the same compound, the TGI is over 100 µM with NCI/ADR-RES ovarian, 85.7 µM in the test with SF-539 CNS, 71.1 µM in the test with SNB-75 CNS and over 100 µM in the test on UO-31 renal.
With `O=S(=O)(O)c1ccc2c(N=Nc3ccccc3)c(O)ccc2c1`, the TGI with ACHN renal, in the test on CAKI-1 renal, in the test with COLO 205 colon, with HCC-2998 colon, in the test on KM12 colon and with MOLT-4 leukemia was over 100 µM in each case. Also, the TGI in the test with NCI/ADR-RES ovarian, in the test on SF-539 CNS, in the test with SNB-75 CNS and in the test with UO-31 renal was over 100 µM each time.
In the case of `O=C(CSSCC(=O)OCCS(=O)(=O)Nc1ccc(Br)cc1)OCCS(=O)(=O)Nc1ccc(Br)cc1`, the TGI in the test on ACHN renal is 82.8 µM; in the test with CAKI-1 renal, 68.4 µM; in the test with COLO 205 colon, 62.2 µM; with HCC-2998 colon it was 25.9 µM; in the test with KM12 colon, 30 µM; in the test on MOLT-4 leukemia it was 15.4 µM. The TGI is 32.8 µM with SF-539 CNS, 66.6 µM in the test with SNB-75 CNS and over 100 µM in the test on UO-31 renal.
Regarding `COc1cc(/C=C2\N=C(c3ccccc3)N(c3nc4ccc(Sc5ccccc5)cc4[nH]3)C2=O)cc(OC)c1OC`, the TGI is 57.7 µM with ACHN renal; over 100 µM in the test on CAKI-1 renal; 33 µM with COLO 205 colon; 30.3 µM in the test on HCC-2998 colon; 58.8 µM in the test with KM12 colon; 78.5 µM in the test on MOLT-4 leukemia. Also, the TGI is 74.6 µM in the test with NCI/ADR-RES ovarian, over 100 µM in the test on SNB-75 CNS and over 100 µM with UO-31 renal.
Regarding `O=C1CS(=O)(=O)C(c2cccc(Oc3ccccc3)c2)N1C1CC1` (stereo not drawn), the TGI in the test with ACHN renal was 80 µM; with COLO 205 colon, 72.9 µM; in the test on HCC-2998 colon, over 100 µM; in the test on KM12 colon, over 100 µM; in the test with MOLT-4 leukemia, over 100 µM; with NCI/ADR-RES ovarian it was over 100 µM. Further, the values for the TGI in the test with SF-539 CNS, with SNB-75 CNS and with UO-31 renal were over 100 µM, 80.7 µM and over 100 µM, respectively.
On to `COc1ccc(N=Nc2c(N)nn(C)c2N)cc1`, for which the TGI in the test on ACHN renal, in the test with CAKI-1 renal, with COLO 205 colon, in the test with KM12 colon, in the test with MOLT-4 leukemia and in the test with SF-539 CNS was over 100 µM each time. The TGI in the test with SNB-75 CNS and with UO-31 renal was over 100 µM in each case.
As to `COc1cccc(NC(=O)CC(=O)NN2C(=O)/C(=C/c3ccc(N(CCC#N)CCC#N)cc3)N=C2c2cc([N+](=O)[O-])ccc2Cl)c1`, the TGI in the test with ACHN renal, in the test with CAKI-1 renal, in the test with COLO 205 colon, in the test on HCC-2998 colon, in the test on KM12 colon and in the test on MOLT-4 leukemia was over 100 µM each time. Also, the TGI in the test with SF-539 CNS and in the test on UO-31 renal was over 100 µM throughout.
Turning to `Cn1c(=O)ccc2c(=O)c3ccccc3oc21`, the TGI with ACHN renal, in the test with CAKI-1 renal, in the test on COLO 205 colon, in the test on HCC-2998 colon, in the test on KM12 colon and in the test with NCI/ADR-RES ovarian was over 100 µM throughout. In addition, the figures for the TGI in the test on SF-539 CNS and in the test with UO-31 renal were over 100 µM and 16.8 µM, respectively.
For the compound `C=C1c2nc3ccccc3n2C=C(c2ccc(Cl)cc2)N1c1ccc(OCCN2CCCCC2)cc1`, the GI50 in the test on ACHN renal is over 100 µM; with COLO 205 colon it was over 100 µM; in the test with KM12 colon, over 100 µM; in the test on MOLT-4 leukemia, 0.553 µM; in the test with NCI/ADR-RES ovarian, 2.14 µM. Besides, the TGI in the test on ACHN renal is over 100 µM; in the test with CAKI-1 renal, over 45 µM; in the test on COLO 205 colon it was over 100 µM; in the test on HCC-2998 colon, over 100 µM; with KM12 colon, over 100 µM; in the test with MOLT-4 leukemia, > 45 µM and 9.22 µM. Besides, the TGI with NCI/ADR-RES ovarian is over 100 µM; in the test with SF-539 CNS, over 100 µM; in the test with UO-31 renal, over 45 µM.
Regarding `Cn1cc(-c2nnc(-c3ccc(Cl)cc3)[nH]c2=O)c2ccccc21`, the TGI in the test on ACHN renal was over 76.1 µM; in the test on CAKI-1 renal it was over 100 µM; with COLO 205 colon it was over 100 µM; with KM12 colon, over 23.9 µM; in the test on MOLT-4 leukemia it was 98.8 µM; with NCI/ADR-RES ovarian, 8.03 µM. Further, the values for the TGI in the test with SNB-75 CNS and in the test with UO-31 renal were 35.1 µM and over 47 µM, respectively.
Regarding `O=c1[nH]c2cc([N+](=O)[O-])c(N/N=C/c3ccc(Cl)cc3Cl)c([N+](=O)[O-])c2[nH]1`, the TGI is over 100 µM in the test on ACHN renal; over 100 µM with CAKI-1 renal; over 100 µM in the test with COLO 205 colon; 25.8 µM with KM12 colon; over 100 µM with MOLT-4 leukemia; over 100 µM in the test on NCI/ADR-RES ovarian. The TGI in the test with SF-539 CNS, with SNB-75 CNS and in the test on UO-31 renal was over 100 µM in each case.
As to `O=c1c(-c2ccccc2)c(SCCN2CCOCC2)n(-c2ccccc2)c(=S)n1-c1ccccc1`, the TGI in the test on ACHN renal, with CAKI-1 renal, with COLO 205 colon, in the test with HCC-2998 colon, with KM12 colon and with MOLT-4 leukemia was over 100 µM in each case. Besides, the TGI was over 100 µM with NCI/ADR-RES ovarian, over 100 µM with SF-539 CNS and 87.6 µM in the test on SNB-75 CNS.
